Assay results: PubChem BioAssay AID256 (DTP/NCI, 2004)
Where “and” joins values, the source holds several entries; their conditions need not be identical. Equal values may be shown once. Inconclusive results and toxic doses are left out.

Test system: CD2F1 mice, L1210 leukemia ip, survival T/C
Experiment: NCI In Vivo Anticancer Drug Screen. Data for tumor model L1210 Leukemia (intraperitoneal) in CD2F1 (CDF1) mice
Details: higher = longer survival
How it was run: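 Compound-dosed mice with transplantable tumor versus matched vehicle controls; endpoint ratio T/C reported.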

[1] = endpoint: mean survival time, dose: 100.0 mg/kg/injection, schedule: Q04DX003 (ip), vehicle: saline with Tween-80
[2] = endpoint: mean survival time, dose: 200.0 mg/kg/injection, schedule: Q04DX003 (ip), vehicle: saline with Tween-80
[3] = endpoint: mean survival time, dose: 400.0 mg/kg/injection, schedule: Q04DX003 (ip), vehicle: saline with Tween-80
[4] = endpoint: mean survival time, dose: 25.0 mg/kg/injection, schedule: Q01DX009 (ip), vehicle: water
[5] = endpoint: mean survival time, dose: 50.0 mg/kg/injection, schedule: Q01DX009 (ip), vehicle: water
[6] = endpoint: mean survival time, dose: 100.0 mg/kg/injection, schedule: Q01DX009 (ip), vehicle: water
[7] = endpoint: mean survival time, dose: 100.0 mg/kg/injection, schedule: Q01DX001 (ip), vehicle: saline with Tween-80
[8] = endpoint: mean survival time, dose: 100.0 mg/kg/injection, schedule: Q01DX009 (ip), vehicle: saline with Tween-80
[9] = endpoint: mean survival time, dose: 200.0 mg/kg/injection, schedule: Q01DX001 (ip), vehicle: saline with Tween-80
[10] = endpoint: mean survival time, dose: 200.0 mg/kg/injection, schedule: Q01DX009 (ip), vehicle: saline with Tween-80
[11] = endpoint: mean survival time, dose: 400.0 mg/kg/injection, schedule: Q01DX001 (ip), vehicle: saline with Tween-80
[12] = endpoint: mean survival time, dose: 400.0 mg/kg/injection, schedule: Q01DX009 (ip), vehicle: saline with Tween-80

## [Cl][Pt+2][Cl].[NH-]C(CC([NH-])c1ccccc1)c1ccccc1 (stereo unspecified)
endpoint: mean survival time, dose: 6.25 mg/kg/injection, schedule: Q04DX003 (ip), vehicle: saline with Tween-80
  T/C: 119 % of control and 113 % of control and 115 % of control
endpoint: mean survival time, dose: 12.5 mg/kg/injection, schedule: Q04DX003 (ip), vehicle: saline with Tween-80
  T/C: 121 % of control and 113 % of control and 119 % of control
endpoint: mean survival time, dose: 25.0 mg/kg/injection, schedule: Q04DX003 (ip), vehicle: saline with Tween-80
  T/C: 122 % of control and 113 % of control and 119 % of control

## N#Cc1cnn(-c2ccc([N+](=O)[O-])cc2)c1N
[1]
  T/C: 111 % of control
[2]
  T/C: 100 % of control
[3]
  T/C: 100 % of control

## COc1ccc(C2=NC(C)Cc3cc(OC)c(OC)cc32)cc1OC (stereo unspecified)
endpoint: mean survival time, dose: 12.5 mg/kg/injection, schedule: Q01DX009 (ip), vehicle: water
  T/C: 96 % of control
[4]
  T/C: 94 % of control
[5]
  T/C: 94 % of control
[6]
  T/C: 91 % of control

## [CH3][Sn]([CH3])([CH3])[CH2]CCBr
endpoint: mean survival time, dose: 0.39 mg/kg/injection, schedule: Q01DX009 (ip), vehicle: saline
  T/C: 107 % of control
endpoint: mean survival time, dose: 0.78 mg/kg/injection, schedule: Q01DX009 (ip), vehicle: saline
  T/C: 107 % of control
endpoint: mean survival time, dose: 50.0 mg/kg/injection, schedule: Q01DX009 (ip), vehicle: saline
  T/C: 89 % of control

## COC(=O)C(CCCCN)NC(=O)c1ccccc1 (stereo unspecified)
[1]
  T/C: 101 % of control
[2]
  T/C: 103 % of control
[3]
  T/C: 101 % of control

## C1CC2N=NC1C21CC1.[Cl][Cu][Cl]
endpoint: mean survival time, dose: 6.25 mg/kg/injection, schedule: Q04DX002 (ip), vehicle: saline with Tween-80
  T/C: 96 % of control
endpoint: mean survival time, dose: 12.5 mg/kg/injection, schedule: Q04DX002 (ip), vehicle: saline with Tween-80
  T/C: 108 % of control

## CCN1CCS(=O)(=O)C1=O
endpoint: mean survival time, dose: 75.0 mg/kg/injection, schedule: Q01DX001 (ip), vehicle: other
  T/C: 108 % of control
endpoint: mean survival time, dose: 150.0 mg/kg/injection, schedule: Q01DX001 (ip), vehicle: other
  T/C: 115 % of control

## [N-]=[N+]=NC1CC(n2ccc(=O)[nH]c2=O)OC1CO (stereo unspecified)
endpoint: median survival time, dose: 12.5 mg/kg/injection, schedule: Q01DX005 (ip), vehicle: saline
  T/C: 101 % of control
endpoint: median survival time, dose: 25.0 mg/kg/injection, schedule: Q01DX005 (ip), vehicle: saline
  T/C: 102 % of control
endpoint: median survival time, dose: 50.0 mg/kg/injection, schedule: Q01DX005 (ip), vehicle: saline
  T/C: 100 % of control
endpoint: median survival time, dose: 100.0 mg/kg/injection, schedule: Q01DX005 (ip), vehicle: saline
  T/C: 94 % of control
endpoint: median survival time, dose: 200.0 mg/kg/injection, schedule: Q01DX005 (ip), vehicle: saline
  T/C: 100 % of control

## Cc1ccc(S(=O)(=O)OCC(OS(=O)(=O)c2ccc(C)cc2)C(O)C(O)C(O)CO)cc1 (stereo unspecified)
[1]
  T/C: 97 % of control
[2]
  T/C: 91 % of control
[3]
  T/C: 91 % of control

## FC(F)(F)/C([S-])=C(/[S-])C(F)(F)F.FC(F)(F)/C([S-])=C(/[S-])C(F)(F)F.FC(F)(F)/C([S-])=C(/[S-])C(F)(F)F.FC(F)(F)/C([S-])=C(/[S-])C(F)(F)F.[Co+3].[Co+3]
endpoint: mean survival time, dose: 12.5 mg/kg/injection, schedule: Q04DX003 (ip), vehicle: other
  T/C: 95 % of control
endpoint: mean survival time, dose: 25.0 mg/kg/injection, schedule: Q04DX003 (ip), vehicle: other
  T/C: 95 % of control
endpoint: mean survival time, dose: 50.0 mg/kg/injection, schedule: Q04DX003 (ip), vehicle: other
  T/C: 98 % of control

## O=C(OC1C2C=COC(OC3OC(CO)C(O)C(O)C3O)C2C2(CO)OC12)c1ccc(O)cc1 (stereo unspecified)
endpoint: mean survival time, dose: 25.0 mg/kg/injection, schedule: Q01DX001 (ip), vehicle: carboxymethylcellulose (CMC)
  T/C: 101 % of control
endpoint: mean survival time, dose: 50.0 mg/kg/injection, schedule: Q01DX001 (ip), vehicle: carboxymethylcellulose (CMC)
  T/C: 98 % of control
endpoint: mean survival time, dose: 100.0 mg/kg/injection, schedule: Q01DX001 (ip), vehicle: carboxymethylcellulose (CMC)
  T/C: 89 % of control

## COc1ccc(N2C(=O)C=CC2=O)cc1
endpoint: mean survival time, dose: 6.25 mg/kg/injection, schedule: Q01DX001 (ip), vehicle: saline with Tween-80
  T/C: 103 % of control
endpoint: mean survival time, dose: 12.5 mg/kg/injection, schedule: Q01DX001 (ip), vehicle: saline with Tween-80
  T/C: 88 % of control
endpoint: mean survival time, dose: 25.0 mg/kg/injection, schedule: Q01DX001 (ip), vehicle: saline with Tween-80
  T/C: 94 % of control and 97 % of control

## OC1(C2(O)c3ccccc3Oc3ccccc32)c2ccccc2Oc2ccccc21
endpoint: mean survival time, dose: 100.0 mg/kg/injection, schedule: Q01DX009 (ip), vehicle: saline
  T/C: 99 % of control
endpoint: mean survival time, dose: 200.0 mg/kg/injection, schedule: Q01DX009 (ip), vehicle: saline
  T/C: 97 % of control

## CCCCSCCN
endpoint: mean survival time, dose: 25.0 mg/kg/injection, schedule: Q04DX002 (ip), vehicle: saline with Tween-80
  T/C: 94 % of control
endpoint: mean survival time, dose: 50.0 mg/kg/injection, schedule: Q04DX002 (ip), vehicle: saline with Tween-80
  T/C: 94 % of control
endpoint: mean survival time, dose: 100.0 mg/kg/injection, schedule: Q04DX002 (ip), vehicle: saline with Tween-80
  T/C: 102 % of control

## CCC1(c2cccc([N+](=O)[O-])c2)OCCO1
[7]
  T/C: 94 % of control
[8]
  T/C: 102 % of control
[1]
  T/C: 102 % of control
[9]
  T/C: 94 % of control
[10]
  T/C: 110 % of control
[2]
  T/C: 107 % of control
[11]
  T/C: 94 % of control
[12]
  T/C: 103 % of control
[3]
  T/C: 102 % of control

## CN1c2c(nc(N)[nH]c2=O)NCC1CCNc1ccc(C(=O)NC(CCC(=O)O)C(=O)O)cc1 (stereo unspecified)
endpoint: mean survival time, dose: 25.0 mg/kg/injection, schedule: Q01DX009 (ip), vehicle: Klucel (hydroxypropylcellulose) (HPC)
  T/C: 118 % of control
endpoint: mean survival time, dose: 50.0 mg/kg/injection, schedule: Q01DX009 (ip), vehicle: Klucel (hydroxypropylcellulose) (HPC)
  T/C: 123 % of control
endpoint: mean survival time, dose: 200.0 mg/kg/injection, schedule: Q01DX009 (ip), vehicle: sodium bicarbonate
  T/C: 119 % of control
endpoint: mean survival time, dose: 1250.0 mg/kg/injection, schedule: Q01DX009 (ip), vehicle: sodium bicarbonate
  T/C: 155 % of control

## CCOP(=O)(OCC)/C(C#N)=C\c1ccc(OC)c(OC)c1
[8]
  T/C: 98 % of control
[10]
  T/C: 94 % of control
[12]
  T/C: 100 % of control

## FC(F)(F)c1cccc(NC2=NCCO2)c1
[7]
  T/C: 92 % of control
[9]
  T/C: 93 % of control
[11]
  T/C: 91 % of control

## CCOC(=O)Oc1c(OC)cc(C(=O)O[C@@H]2C[C@@H]3CN4CCc5c([nH]c6cc(OC)ccc56)[C@H]4C[C@@H]3[C@H](C(=O)OC)[C@H]2OC)cc1OC
endpoint: mean survival time, dose: 25.0 mg/kg/injection, schedule: Q01DX009 (ip), vehicle: saline with Tween-80
  T/C: 104 % of control
[8]
  T/C: 94 % of control
[1]
  T/C: 103 % of control

## O=C(NCCNC(c1ccccc1)C(NCCNC(=O)c1ccccc1)c1ccccc1)c1ccccc1 (stereo unspecified)
[7]
  T/C: 92 % of control
[9]
  T/C: 96 % of control
[11]
  T/C: 92 % of control

## O=C(NCCCCCCCCNC(=O)N1CC1)N1CC1
endpoint: mean survival time, dose: 1.5 mg/kg/injection, schedule: Q01DX001 (ip), vehicle: carboxymethylcellulose (CMC)
  T/C: 117 % of control
endpoint: mean survival time, dose: 2.25 mg/kg/injection, schedule: Q01DX001 (ip), vehicle: carboxymethylcellulose (CMC)
  T/C: 111 % of control
endpoint: mean survival time, dose: 3.3 mg/kg/injection, schedule: Q01DX001 (ip), vehicle: carboxymethylcellulose (CMC)
  T/C: 121 % of control
endpoint: mean survival time, dose: 5.0 mg/kg/injection, schedule: Q01DX001 (ip), vehicle: carboxymethylcellulose (CMC)
  T/C: 122 % of control
endpoint: mean survival time, dose: 7.5 mg/kg/injection, schedule: Q01DX001 (ip), vehicle: carboxymethylcellulose (CMC)
  T/C: 152 % of control
endpoint: mean survival time, dose: 11.0 mg/kg/injection, schedule: Q01DX001 (ip), vehicle: carboxymethylcellulose (CMC)
  T/C: 183 % of control

## O=C(Nc1ccccc1C(F)(F)F)OCCOc1ccccc1Cl
endpoint: mean survival time, dose: 100.0 mg/kg/injection, schedule: Q01DX009 (ip), vehicle: Klucel (hydroxypropylcellulose) (HPC)
  T/C: 103 % of control
endpoint: mean survival time, dose: 400.0 mg/kg/injection, schedule: Q01DX009 (ip), vehicle: Klucel (hydroxypropylcellulose) (HPC)
  T/C: 89 % of control

## CCOC(=O)C(NC(N)=O)C(=O)OCC
[4]
  T/C: 91 % of control
[5]
  T/C: 91 % of control
[6]
  T/C: 93 % of control
endpoint: mean survival time, dose: 200.0 mg/kg/injection, schedule: Q01DX009 (ip), vehicle: water
  T/C: 89 % of control
endpoint: mean survival time, dose: 400.0 mg/kg/injection, schedule: Q01DX009 (ip), vehicle: water
  T/C: 93 % of control

## CC(=O)OC1C=CS(=O)(=O)C1 (stereo unspecified)
[1]
  T/C: 108 % of control
[2]
  T/C: 103 % of control
[3]
  T/C: 105 % of control

## CO[C@@]12[C@@H]3N[C@@H]3CN1C1=C(C(=O)C(Nc3nc(C)cs3)=C(C)C1=O)[C@@H]2COC(N)=O
endpoint: mean survival time, dose: 1.5 mg/kg/injection, schedule: Q01DX001 (ip), vehicle: water
  T/C: 116 % of control and 112 % of control
endpoint: mean survival time, dose: 3.0 mg/kg/injection, schedule: Q01DX001 (ip), vehicle: water
  T/C: 115 % of control
endpoint: mean survival time, dose: 6.0 mg/kg/injection, schedule: Q01DX001 (ip), vehicle: water
  T/C: 121 % of control
